Assay [1] deals with MCF7. Description: In vitro cytotoxicity against human breast carcinoma cell line (MCF-7). Format: functional. The note with it: read-out: ID50 (the source's name).
Assay [2] concerns MCF7-VP. The assay can be described thus: In vitro cytotoxicity against multi drug resistant human breast carcinoma (MCF-7/VP-16) cell line. Format: functional. Particulars: read-out: ID50 (the source's name).
The nature of assay [3]: RI is the ratio of cytotoxicity against MCF-7/VP-16 cell line to that of MCF-7 cell line. The format is functional, MCF7.

`COc1cccc2c1C(=O)c1c(O)c3c(c(O)c1C2=O)C[C@@](O)(C(C)=O)C[C@@H]3OC1CC(NCc2ccc(CNC3CC(O[C@H]4C[C@](O)(C(C)=O)Cc5c(O)c6c(c(O)c54)C(=O)c4c(OC)cccc4C6=O)OC(C)C3O)cc2)C(O)C(C)O1.Cl.Cl` (some centres undefined) [BISANTHRACYCLINE (WP631)]: the IC50 in assay [1] worked out at 4.8 µM; in assay [2], 2.5 µM. Further, the RI in assay [3] amounted to 0.5.

As to `COc1cccc2c1C(=O)c1c(O)c3c(c(O)c1C2=O)C[C@@](O)(C(=O)CO)C[C@@H]3O[C@H]1C[C@H](N)[C@H](O)[C@H](C)O1` [DOXORUBICIN], in assay [2], the IC50 worked out at 14.2 µM.

(Values after ChEMBL document CHEMBL1130281, “Structure-based design of a new bisintercalating anthracycline antibiotic” (1997).)
